Test results from ChEMBL document CHEMBL1671642 (2009).
Converted amounts (≈) assume the structure as drawn.

How the values were obtained:
Assay type in all cases: functional
[1] = system: Escherichia coli; experiment: Antimicrobial activity against Escherichia coli K-12 3-AG300 harboring acrB::rpsLneo mutant gene
[2] = system: Escherichia coli; experiment: Antimicrobial activity against Escherichia coli K-12 3-AG300 harboring AcrB-G616N mutant gene
[3] = system: Escherichia coli; experiment: Antimicrobial activity against Escherichia coli K-12 3-AG300 harboring AcrB-615-628MexB-N616 mutant gene
[4] = system: Escherichia coli; experiment: Antimicrobial activity against Escherichia coli K-12 3-AG300 harboring AcrB-I626M mutant gene
[5] = system: Escherichia coli; experiment: Ratio of MIC for Escherichia coli K-12 3-AG300 harboring acrB::rpsLneo mutant gene to MIC for Escherichia coli K-12 3-AG300
[6] = system: Escherichia coli; experiment: Antimicrobial activity against Escherichia coli K-12 3-AG300 harboring AcrB-F628F mutant gene
[7] = system: Escherichia coli; experiment: Antimicrobial activity against Escherichia coli K-12 3-AG300 harboring AcrB-615-628MexB-M626I mutant gene
[8] = system: Escherichia coli; experiment: Antimicrobial activity against Escherichia coli K-12 3-AG300 harboring AcrB-615-628MexB-S623N mutant gene
[9] = system: Escherichia coli; experiment: Antimicrobial activity against Escherichia coli K-12 3-AG300 harboring AcrB-615-628MexB mutant gene
[10] = system: Escherichia coli; experiment: Antimicrobial activity against Escherichia coli K-12 3-AG300 harboring AcrB-N623S-Q624S mutant gene
[11] = system: Escherichia coli; experiment: Ratio of MIC for Escherichia coli K-12 3-AG300 harboring AcrB-615-628MexB-M626I mutant gene to MIC for Escherichia coli K-12 3-AG300
[12] = system: Escherichia coli; experiment: Ratio of MIC for Escherichia coli K-12 3-AG300 harboring AcrB-615-628MexB mutant gene to MIC for Escherichia coli K-12 3-AG300
[13] = system: Escherichia coli; experiment: Ratio of MIC for Escherichia coli K-12 3-AG300 harboring AcrB-G616N mutant gene to MIC for Escherichia coli K-12 3-AG300

Row | SMILES | MIC [1] [µg/mL] | MIC [2] [µg/mL] | MIC [3] [µg/mL] | MIC [4] [µg/mL] | Ratio [5] | MIC [6] [µg/mL] | MIC [7] [µg/mL] | MIC [8] [µg/mL] | MIC [9] [µg/mL] | MIC [10] [µg/mL] | Ratio [11] | Ratio [12] | Ratio [13]
1 | CO[C@@H]1[C@@H](OC(N)=O)[C@@H](O)[C@H](Oc2ccc3c(O)c(NC(=O)c4ccc(O)c(CC=C(C)C)c4)c(=O)oc3c2C)OC1(C)C [NOVOBIOCIN] | 4 (≈ 6.53 µM) | 512 (≈ 836 µM) | 512 (≈ 836 µM) | 512 (≈ 836 µM) | 4 | 512 (≈ 836 µM) | 512 (≈ 836 µM) | 1020 (≈ 1670 µM) | 512 (≈ 836 µM) | 512 (≈ 836 µM) |  |  | 
2 | CC[C@H]1OC(=O)[C@H](C)[C@@H](O[C@H]2C[C@@](C)(OC)[C@@H](O)[C@H](C)O2)[C@H](C)[C@@H](O[C@@H]2O[C@H](C)C[C@H](N(C)C)[C@H]2O)[C@](C)(O)C[C@@H](C)C(=O)[C@H](C)[C@@H](O)[C@]1(C)O [ERYTHROMYCIN] | 4 (≈ 5.45 µM) | 128 (≈ 174 µM) | 256 (≈ 349 µM) | 512 (≈ 698 µM) | 4 | 512 (≈ 698 µM) | 128 (≈ 174 µM) | 256 (≈ 349 µM) | 128 (≈ 174 µM) |  | 4 | 4 | 4
3 | O=C(N[C@H](CO)[C@H](O)c1ccc([N+](=O)[O-])cc1)C(Cl)Cl [CHLORAMPHENICOL] | 1 (≈ 3.09 µM) | 8 (≈ 24.8 µM) | 8 (≈ 24.8 µM) | 8 (≈ 24.8 µM) |  | 8 (≈ 24.8 µM) | 8 (≈ 24.8 µM) |  |  | 8 (≈ 24.8 µM) |  |  | 
4 | CC(=O)NC[C@H]1CN(c2ccc(N3CCOCC3)c(F)c2)C(=O)O1 [LINEZOLID] | 16 (≈ 47.4 µM) | 512 (≈ 1520 µM) | 1020 (≈ 3040 µM) | 512 (≈ 1520 µM) | 4 | 512 (≈ 1520 µM) | 1020 (≈ 3040 µM) | 1020 (≈ 3040 µM) | 1020 (≈ 3040 µM) | 512 (≈ 1520 µM) |  |  | 
5 | CCOc1ccc(-c2nc3cc(-c4nc5cc(N6CCN(C)CC6)ccc5[nH]4)ccc3[nH]2)cc1 | 0.125 (≈ 0.276 µM) |  |  |  | 4 | 4 (≈ 8.84 µM) |  |  | 4 (≈ 8.84 µM) |  |  |  | 
6 | CCC[C@@H]1C[C@@H](C(=O)N[C@@H]([C@H]2O[C@H](SC)[C@H](O)[C@@H](O)[C@H]2O)[C@H](C)Cl)N(C)C1 [CLINDAMYCIN] | 4 (≈ 9.41 µM) |  |  |  | 4 | 256 (≈ 602 µM) |  |  | 256 (≈ 602 µM) |  |  |  | 
7 | CC[C@H]1OC(=O)[C@H](C)[C@@H](O[C@H]2C[C@@](C)(OC)[C@@H](O)[C@H](C)O2)[C@H](C)[C@@H](O[C@@H]2O[C@H](C)C[C@H](N(C)C)[C@H]2O)[C@](C)(O)C[C@@H](C)CN(C)[C@H](C)[C@@H](O)[C@]1(C)O [AZITHROMYCIN] | 0.5 (≈ 0.668 µM) | 16 (≈ 21.4 µM) | 64 (≈ 85.4 µM) | 32 (≈ 42.7 µM) | 4 | 64 (≈ 85.4 µM) | 8 (≈ 10.7 µM) | 16 (≈ 21.4 µM) | 16 (≈ 21.4 µM) |  | 4 | 4 | 4
8 | CN(C)c1ccc(O)c2c1C[C@H]1C[C@H]3[C@H](N(C)C)C(O)=C(C(N)=O)C(=O)[C@@]3(O)C(O)=C1C2=O [MINOCYCLINE] | 0.125 (≈ 0.273 µM) | 4 (≈ 8.74 µM) | 2 (≈ 4.37 µM) | 4 (≈ 8.74 µM) | 4 | 4 (≈ 8.74 µM) | 4 (≈ 8.74 µM) | 2 (≈ 4.37 µM) | 2 (≈ 4.37 µM) | 4 (≈ 8.74 µM) |  |  | 
9 | Cc1onc(-c2ccccc2)c1C(=O)N[C@@H]1C(=O)N2[C@@H]1SC(C)(C)[C@@H]2C(=O)O [OXACILLIN] | 0.5 (≈ 1.25 µM) | 256 (≈ 638 µM) | 256 (≈ 638 µM) | 512 (≈ 1280 µM) | 4 | 512 (≈ 1280 µM) | 256 (≈ 638 µM) | 512 (≈ 1280 µM) | 256 (≈ 638 µM) | 256 (≈ 638 µM) |  |  | 
10 | CC[C@H]1OC(=O)[C@H](C)[C@@H](O[C@H]2C[C@@](C)(OC)[C@@H](O)[C@H](C)O2)[C@H](C)[C@@H](O[C@@H]2O[C@H](C)C[C@H](N(C)C)[C@H]2O)[C@](C)(OC)C[C@@H](C)C(=O)[C@H](C)[C@@H](O)[C@]1(C)O [CLARITHROMYCIN] | 4 (≈ 5.35 µM) | 128 (≈ 171 µM) | 512 (≈ 685 µM) | 512 (≈ 685 µM) | 4 | 512 (≈ 685 µM) | 64 (≈ 85.6 µM) | 128 (≈ 171 µM) | 64 (≈ 85.6 µM) | 512 (≈ 685 µM) | 4 | 4 | 4
11 | CCBr [BROMOETHANE] | 16 (≈ 147 µM) | 1020 (≈ 9400 µM) | 512 (≈ 4700 µM) | 1020 (≈ 9400 µM) | 4 | 512 (≈ 4700 µM) | 512 (≈ 4700 µM) | 512 (≈ 4700 µM) | 512 (≈ 4700 µM) | 1020 (≈ 9400 µM) |  |  | 
